# Experimental data from patent publication US20240150377A1, “MODULATORS OF CYSTIC FIBROSIS TRANSMEMBRANE CONDUCTANCE REGULATOR” (VERTEX PHARMACEUTICALS INCORPORATED, priority 2020, published 2024).
# pEC50: −log10 of the molar value.
# Target: T1, CFTR (Homo sapiens, UniProt P13569, DEL508-508)
# T1 construct: endogenous in cells; host or cells: primary human bronchial epithelial cells from CF subjects (F508del/MF-HBE), differentiated at air-liquid interface
# Assay: HBE2 assay: Ussing chamber assay of CFTR-mediated short-circuit currents
# Assay type: cell-based
# Settings: F508del/MF-HBE cells, 18-24 hours, 20% human serum; for Emax: read-out: HBE2 Max activity (%)
# Procedure, shortened: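 F508del/MF-HBE cultured >14 days at air-liquid interface, mounted in Ussing chambers; transepithelial short-circuit current recorded under voltage clamp (Vhold=0 mV) at 37 °C. CFTR-mediated ISC (μA/cm^2) taken as peak forskolin response relative to steady-state current after inhibition; corrector activity assessed this way.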
# [1] = 3 μM corrector, with 44 nM potentiator
# T1 sequence (P13569 with tags, fused parts or gaps DEL508-508): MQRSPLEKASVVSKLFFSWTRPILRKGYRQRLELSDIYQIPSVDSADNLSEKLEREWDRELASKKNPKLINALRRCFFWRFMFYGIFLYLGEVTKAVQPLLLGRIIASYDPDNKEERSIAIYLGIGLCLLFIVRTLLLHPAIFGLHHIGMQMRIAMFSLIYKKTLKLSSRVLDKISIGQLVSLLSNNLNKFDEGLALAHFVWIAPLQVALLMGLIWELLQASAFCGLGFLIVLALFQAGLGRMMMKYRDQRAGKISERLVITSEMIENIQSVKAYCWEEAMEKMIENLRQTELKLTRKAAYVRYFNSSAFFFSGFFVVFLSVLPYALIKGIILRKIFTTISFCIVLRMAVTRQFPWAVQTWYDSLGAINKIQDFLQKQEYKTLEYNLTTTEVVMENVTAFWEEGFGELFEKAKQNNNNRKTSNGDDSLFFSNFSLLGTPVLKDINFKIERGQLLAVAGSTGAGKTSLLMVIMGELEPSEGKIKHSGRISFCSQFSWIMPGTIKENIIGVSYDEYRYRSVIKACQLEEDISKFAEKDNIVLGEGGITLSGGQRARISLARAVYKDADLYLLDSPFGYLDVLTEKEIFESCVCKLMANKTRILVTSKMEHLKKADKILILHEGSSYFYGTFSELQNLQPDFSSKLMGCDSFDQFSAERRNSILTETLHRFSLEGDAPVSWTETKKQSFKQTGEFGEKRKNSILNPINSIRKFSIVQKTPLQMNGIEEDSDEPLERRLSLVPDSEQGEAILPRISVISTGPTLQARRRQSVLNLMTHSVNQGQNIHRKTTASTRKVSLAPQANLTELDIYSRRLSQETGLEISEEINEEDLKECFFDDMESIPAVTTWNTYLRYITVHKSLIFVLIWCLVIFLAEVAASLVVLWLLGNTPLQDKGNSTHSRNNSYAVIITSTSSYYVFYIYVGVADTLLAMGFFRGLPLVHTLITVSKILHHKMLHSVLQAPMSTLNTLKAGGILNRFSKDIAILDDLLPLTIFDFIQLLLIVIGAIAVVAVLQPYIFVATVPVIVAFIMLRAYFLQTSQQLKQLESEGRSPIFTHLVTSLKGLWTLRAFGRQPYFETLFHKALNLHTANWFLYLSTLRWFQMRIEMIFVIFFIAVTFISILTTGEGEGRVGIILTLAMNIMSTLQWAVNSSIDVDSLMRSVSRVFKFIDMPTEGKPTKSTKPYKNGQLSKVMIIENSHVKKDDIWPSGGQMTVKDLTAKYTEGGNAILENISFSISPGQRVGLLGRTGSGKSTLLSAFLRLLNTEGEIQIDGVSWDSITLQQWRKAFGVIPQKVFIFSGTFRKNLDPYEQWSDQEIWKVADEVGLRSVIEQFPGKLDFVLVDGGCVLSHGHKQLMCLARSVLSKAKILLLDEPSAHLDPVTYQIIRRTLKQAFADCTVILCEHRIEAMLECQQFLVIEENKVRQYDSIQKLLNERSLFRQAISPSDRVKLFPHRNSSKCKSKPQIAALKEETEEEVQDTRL
SMILES,HBE2 Activity at 3 μM (%) [1],"HBE2 Activity at 3 μM (%) (3 μM, with 44 nM potentiator)",also measured
Cc1cccc(C)c1-c1cc2nc(n1)NS(=O)(=O)c1cccc(c1)C(=O)N(Cc1cncc(N(C)C)n1)[C@H](CCC(C)(C)C)CO2 [Compound 1806],+++ (+++ is >60+),–,–
CCN(c1nc(CN2C(=O)c3cccc(c3)S(=O)(=O)Nc3nc(cc(-c4c(C)cccc4C)n3)OC[C@H]2CC(C)(C)C)co1)C1CCC1 [Compound 1645],–,+++ (+++ is >60+),–
Cc1cccc(C)c1-c1cc2nc(n1)NS(=O)(=O)c1cccc(c1)C(=O)N(Cc1cncc(N3CCCC[C@@H]3C)n1)[C@H](C1CC(C)(C)C1)CO2 (stereo in doubt) [Compound 1897],+ (+ is <300)),–,–
Cc1cccc(C)c1-c1cc2nc(n1)NS(=O)(=O)c1cccc(c1)C(=O)N(Cc1ccc(N3CC(C)(C)C3)cn1)[C@H](CC(C)(C)C)CO2 [Compound 1655],–,+++ (+++ is >60+),–
Cc1cccc(C)c1-c1cc2nc(n1)NS(=O)(=O)c1cccc(c1)C(=O)N(Cc1cncc(N3CC[C@@H]4CN(C(=O)OC(C)(C)C)CC43)n1)[C@H](CC(C)(C)C)CO2 (stereo in doubt) [Compound 1649],–,+++ (+++ is >60+),–
Cc1cccc(C)c1-c1cc2nc(n1)NS(=O)(=O)c1cccc(c1)C(=O)N(Cc1cncc(N(C)C3CC4(CC4)C3)n1)[C@H](COC1CC1)CO2 [Compound 1904],+++ (+++ is >60+),–,–
Cc1cccc(C)c1-c1cc2nc(n1)NS(=O)(=O)c1cccc(c1)C(=O)N(Cc1cncc(N(C)[C@H]3C[C@H](F)C3)n1)[C@H](CCC1CC1)CO2 [Compound 1916],+++ (+++ is >60+),–,–
Cc1cccc(C)c1-c1cc2nc(n1)NS(=O)(=O)c1cccc(c1)C(=O)N(Cc1cncc(N3CCC4OCCC43)n1)[C@H](CC(C)(C)C)CO2 (stereo partly drawn) [Compound 1643],–,+++ (+++ is >60+),–
CCC(CC)[C@@H]1COc2cc(-c3c(C)cccc3C)nc(n2)NS(=O)(=O)c2cccc(c2)C(=O)N1Cc1cncc(N(C)C2CCC2)n1 [Compound 1779],+++ (+++ is >60+),–,–
Cc1cccc(C)c1-c1cc2nc(n1)NS(=O)(=O)c1cccc(c1)C(=O)N(Cc1cncc(N(C)C3CCC3)n1)[C@H](C1CCCCC1)CO2 [Compound 1733],+++ (+++ is >60+),–,pEC50 (corrector at a range of concentrations with 44 nM potentiator): > 6.00; Emax (with 44 nM potentiator): > 60%
Cc1cccc(C)c1-c1cc2nc(n1)NS(=O)(=O)c1cccc(c1)C(=O)N(Cc1cnc3c(cc(C(C)C)n3C)n1)[C@H](CC(C)(C)C)CO2 [Compound 1858],+++ (+++ is >60+),–,–
"Cc1cccc(C)c1-c1cc2nc(n1)NS(=N)(=O)c1cccc(c1)C(=O)N(Cc1ncc(N3CC(C)(C)C3)cn1)[C@H](CC(C)(C)C)CO2 (single isomer, unassigned) [Compound 1313]",–,+++ (+++ is >60+),–
Cc1cccc(C)c1-c1cc2nc(n1)NS(=O)(=O)c1cccc(c1)C(=O)N(Cc1cnc3cc(C(C)C)n(C)c3n1)[C@H](C[C@H]1CCCOC1)CO2 [Compound 1931],+++ (+++ is >60+),–,–
Cc1cccc(C)c1-c1cc2nc(n1)NS(=O)(=O)c1cccc(c1)C(=O)N(Cc1cncc(N(C)C3CCC3)n1)[C@H](CCC(C)C)CO2 [Compound 1685],–,+++ (+++ is >60+),pEC50 (with 44 nM potentiator): > 6.00; Emax (with 44 nM potentiator): > 60%
CCCOc1cnc(CN2C(=O)c3cccc(c3)S(=O)(=O)Nc3nc(cc(-c4c(C)cccc4C)n3)OC[C@H]2CCC(C)C)nc1 [Compound 1577],–,+++ (+++ is >60+),–
Cc1cccc(C)c1-c1cc2nc(n1)NS(=O)(=O)c1cccc(c1)C(=O)N(Cc1cncc(N3CC(C)(C)[C@H]3C(C)C)n1)[C@H](CC(C)(C)C)CO2 [Compound 1750],+++ (+++ is >60+),–,–
Cc1cccc(C)c1-c1cc2nc(n1)NS(=O)(=O)c1cccc(c1)C(=O)N(Cc1cnc3cc(C(C)C)n(C)c3n1)[C@H](CC(C)(C)C(F)(F)F)CO2 [Compound 1836],+++ (+++ is >60+),–,–
